What was measured:
[1] = target: T1, Prostaglandin E2 receptor EP3 subtype (Homo sapiens, UniProt P43115); assay: Displacement of [3H]PGE2 from human EP3 receptor
T1 sequence (P43115 whole entry): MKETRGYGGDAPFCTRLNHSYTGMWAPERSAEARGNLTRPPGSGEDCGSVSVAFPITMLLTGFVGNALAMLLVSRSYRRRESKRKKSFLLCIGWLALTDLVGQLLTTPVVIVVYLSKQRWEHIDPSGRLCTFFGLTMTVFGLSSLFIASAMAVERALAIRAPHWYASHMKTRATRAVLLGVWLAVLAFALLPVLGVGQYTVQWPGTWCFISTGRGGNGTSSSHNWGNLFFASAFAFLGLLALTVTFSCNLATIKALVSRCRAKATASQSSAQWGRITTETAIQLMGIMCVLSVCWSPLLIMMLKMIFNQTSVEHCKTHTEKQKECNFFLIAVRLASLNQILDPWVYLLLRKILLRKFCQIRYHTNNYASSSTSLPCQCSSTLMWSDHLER

[2] = target: T2, Prostaglandin F2-alpha receptor (Homo sapiens, UniProt P43088); assay: Activity at FP receptor at 1 uM by FLIPR assay
[3] = target: T2, Prostaglandin F2-alpha receptor; assay: Activity at FP receptor at 0.1 uM by FLIPR assay
[4] = target: T3, Prostaglandin E2 receptor EP1 subtype (Homo sapiens) (UniProt P34995); assay: Activity at EP1 receptor at 0.1 uM by FLIPR assay
T3 sequence (whole entry): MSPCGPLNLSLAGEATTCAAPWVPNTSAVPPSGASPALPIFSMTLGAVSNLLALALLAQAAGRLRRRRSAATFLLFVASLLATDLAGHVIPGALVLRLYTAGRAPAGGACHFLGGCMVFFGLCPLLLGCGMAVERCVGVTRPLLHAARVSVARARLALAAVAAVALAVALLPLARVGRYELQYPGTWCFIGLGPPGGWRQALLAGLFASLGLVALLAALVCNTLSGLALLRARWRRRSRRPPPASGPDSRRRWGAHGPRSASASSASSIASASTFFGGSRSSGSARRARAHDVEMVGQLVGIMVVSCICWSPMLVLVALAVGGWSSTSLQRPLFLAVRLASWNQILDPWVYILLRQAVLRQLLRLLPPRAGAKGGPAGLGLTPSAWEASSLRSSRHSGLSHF

[5] = target: T3, Prostaglandin E2 receptor EP1 subtype (Homo sapiens); assay: Activity at EP1 receptor at 1 uM by FLIPR assay
[6] = target: T4, Thromboxane A2 receptor (Homo sapiens) (UniProt P21731); assay: Activity at TP receptor at 1 uM by FLIPR assay
T4 sequence (whole entry): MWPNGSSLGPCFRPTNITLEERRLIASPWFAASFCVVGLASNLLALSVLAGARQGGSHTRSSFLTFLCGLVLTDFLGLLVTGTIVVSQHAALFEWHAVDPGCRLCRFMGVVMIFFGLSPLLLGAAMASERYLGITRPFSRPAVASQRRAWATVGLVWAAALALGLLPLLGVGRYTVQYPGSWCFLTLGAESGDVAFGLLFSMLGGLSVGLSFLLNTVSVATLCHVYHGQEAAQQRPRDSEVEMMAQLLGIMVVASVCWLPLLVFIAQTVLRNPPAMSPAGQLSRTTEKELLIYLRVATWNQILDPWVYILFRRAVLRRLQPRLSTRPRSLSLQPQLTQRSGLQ

[7] = target: T4, Thromboxane A2 receptor (Homo sapiens); assay: Activity at TP receptor at 10 uM by FLIPR assay
[8] = target: T5, Prostaglandin E2 receptor EP4 subtype (Homo sapiens, UniProt P35408); assay: Activity at EP4 receptor at 1 uM by FLIPR assay
[9] = target: T5, Prostaglandin E2 receptor EP4 subtype; assay: Activity at EP4 receptor at 0.1 uM by FLIPR assay
[10] = target: T4, Thromboxane A2 receptor (Homo sapiens); assay: Activity at TP receptor at 0.1 uM by FLIPR assay
[11] = target: T5, Prostaglandin E2 receptor EP4 subtype; assay: Activity at EP4 receptor at 10 uM by FLIPR assay
[12] = Protein binding in plasma by HSA-HPLC method; format: ADME, cell-free; settings: human, read-out: PB (converted)
[13] = target: T2, Prostaglandin F2-alpha receptor; assay: Activity at FP receptor at 10 uM by FLIPR assay
[14] = target: T3, Prostaglandin E2 receptor EP1 subtype (Homo sapiens); assay: Activity at EP1 receptor at 10 uM by FLIPR assay
[15] = target: T6, Prostaglandin E2 receptor EP3 subtype (Homo sapiens) (UniProt P43115); assay: Displacement of [3H]PGE2 from human EP3 receptor in presence of 10% human serum
T6 sequence (whole entry): T1 sequence (P43115 whole entry)

[16] = Metabolic stability in rat liver microsomes assessed as compound remaining after 30 mins; format: ADME, Microsome; settings: read-out: Stability
[17] = Metabolic stability in human liver microsomes assessed as compound remaining after 30 mins; format: ADME, Microsome; settings: read-out: Stability
Platelet = assay: Inhibition of PGE2/collagen-induced platelet aggregation rat platelets rich plasma; format: functional

T5 sequence (P35408 whole entry): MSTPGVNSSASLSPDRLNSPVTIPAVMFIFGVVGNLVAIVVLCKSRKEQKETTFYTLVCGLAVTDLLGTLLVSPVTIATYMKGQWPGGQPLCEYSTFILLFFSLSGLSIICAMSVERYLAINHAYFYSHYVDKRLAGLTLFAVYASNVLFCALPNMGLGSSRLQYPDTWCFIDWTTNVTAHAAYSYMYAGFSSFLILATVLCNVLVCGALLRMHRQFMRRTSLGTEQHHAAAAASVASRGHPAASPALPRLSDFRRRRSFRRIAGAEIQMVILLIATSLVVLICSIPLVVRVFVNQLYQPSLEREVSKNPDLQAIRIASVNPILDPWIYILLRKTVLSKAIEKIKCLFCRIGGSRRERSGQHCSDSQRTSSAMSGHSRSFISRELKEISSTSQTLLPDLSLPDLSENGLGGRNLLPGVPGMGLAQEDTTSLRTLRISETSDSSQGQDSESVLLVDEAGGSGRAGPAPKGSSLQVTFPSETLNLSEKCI
T2 sequence (P43088 whole entry): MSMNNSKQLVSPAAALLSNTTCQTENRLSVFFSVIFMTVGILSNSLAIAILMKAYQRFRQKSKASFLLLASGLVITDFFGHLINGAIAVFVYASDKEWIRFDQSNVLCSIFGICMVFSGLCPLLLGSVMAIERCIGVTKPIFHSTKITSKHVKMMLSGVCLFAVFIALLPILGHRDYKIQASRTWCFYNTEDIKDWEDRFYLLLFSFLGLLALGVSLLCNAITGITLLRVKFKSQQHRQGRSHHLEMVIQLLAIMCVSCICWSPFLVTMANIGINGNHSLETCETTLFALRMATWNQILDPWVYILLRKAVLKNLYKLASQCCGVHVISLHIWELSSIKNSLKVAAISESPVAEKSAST

IC50 [1] [nM] | Activity [2] [%] | Activity [3] [%] | Activity [4] [%] | Activity [5] [%] | Activity [6] [%] | Activity [7] [%] | Activity [8] [%] | Activity [9] [%] | Activity [10] [%] | Activity [11] [%] | fraction unbound [12] | Activity [13] [%] | Activity [14] [%] | fold change (FC) [15] | remaining at 0.5 h [16] [%] | remaining at 0.5 h [17] [%] | IC50 (Platelet) [nM] | SMILES
17900 | – | – | – | – | – | – | – | – | – | – | – | – | – | – | – | – | – | Cc1cn(Cc2ccc(F)cc2F)c2c(-c3cc(NS(C)(=O)=O)on3)cc(F)cc12
2 | 21 | 5 | 25 | 94 | 11 | 99 | 15 | 9 | 3 | 84 | 0.006 | 64 | 99 | 22 | – | – | – | Cc1cn(Cc2ccc(Cl)cc2Cl)c2c(-c3nnc(NS(=O)(=O)c4cc(F)c(F)cc4F)o3)cc(F)cc12
10 | – | – | – | – | – | – | – | – | – | – | 0.002 | – | – | 27 | 46.4 | 62.7 | – | Cc1cn(Cc2ccc(Cl)cc2Cl)c2c(-c3nnc(NS(=O)(=O)c4cc(Cl)c(Cl)s4)o3)cc(F)cc12
1 | 0 | -9 | -3 | 9 | -2 | 12 | -17 | -25 | 3 | -4 | – | 6 | 62 | 14.6 | 9.9 | – | – | Cc1cn(Cc2ccc3ccccc3c2)c2c(-c3cc(NS(=O)(=O)c4ccc(F)c(F)c4)no3)cc(F)cc12
1980 | – | – | – | – | – | – | – | – | – | – | – | – | – | 1 | – | – | – | Cc1cn(Cc2ccc(F)c(F)c2)c2c(-c3cc(NS(=O)(=O)c4cc(Cl)c(Cl)s4)nn3C)cc(F)cc12
1 | – | – | – | – | – | – | – | – | – | – | – | – | – | 18 | – | – | – | Cc1cn(Cc2ccc(Cl)cc2Cl)c2c(-c3cc(NS(=O)(=O)c4ccc(Cl)c(Cl)c4)no3)cc(F)cc12
8 | 3 | -3 | -2 | 29 | -5 | 19 | -17 | -17 | -9 | 9 | – | 19 | 100 | 2.3 | – | – | – | Cc1cn(Cc2ccc3ccccc3c2)c2c(-c3cc(NS(=O)(=O)c4cc(F)c(F)cc4F)no3)cc(F)cc12
12 | -11 | 3 | 5 | 77 | 3 | 70 | -3 | -8 | 5 | 38 | – | 99 | 99 | 103 | – | – | – | Cc1cn(Cc2ccc(F)c(F)c2)c2c(-c3cc(NS(=O)(=O)c4ccc(F)c(F)c4F)no3)cc(F)cc12
5 | – | – | – | – | – | – | – | – | – | – | – | – | – | 67 | 57.8 | 46.8 | 1040 | Cc1cn(Cc2ccc(Cl)cc2Cl)c2c(-c3cc(NS(=O)(=O)c4cc(Cl)c(Cl)s4)no3)cc(F)cc12
24 | -2 | -4 | 5 | 74 | 5 | 98 | -21 | -21 | 2 | 25 | – | 30 | 100 | 20.9 | – | – | – | Cc1cn(Cc2ccc(Cl)cc2Cl)c2c(-c3nc(NS(=O)(=O)c4cc(Cl)c(Cl)s4)no3)cc(F)cc12
2570 | – | – | – | – | – | – | – | – | – | – | – | – | – | 199 | – | – | – | Cc1cn(Cc2ccc(Cl)cc2Cl)c2c(-c3nnc(NS(C)(=O)=O)o3)cc(F)cc12
11 | -8 | -3 | 2 | -7 | -8 | -13 | -15 | -29 | 9 | 3 | – | -6 | 16 | 4.9 | – | – | – | Cc1cn(Cc2ccc3ccccc3c2)c2c(-c3cc(NS(=O)(=O)c4ccc(Cl)c(Cl)c4)no3)cc(F)cc12
1 | -4 | -7 | -10 | 0 | -7 | 7 | -9 | -9 | -12 | 10 | – | 7 | 80 | 3.6 | – | – | 3240 | Cc1cn(Cc2ccc3ccccc3c2)c2c(-c3cc(NS(=O)(=O)c4cc(Cl)c(Cl)s4)no3)cc(F)cc12
20 | 26 | 22 | -11 | 30 | 9 | 89 | 26 | 13 | -5 | 32 | – | 41 | 100 | 2.4 | 42.5 | – | 2710 | Cc1cn(Cc2ccc(Cl)cc2Cl)c2c(-c3nnc(NS(=O)(=O)c4ccc(F)c(F)c4)o3)cc(F)cc12
44 | 16 | 15 | -9 | 11 | 0 | 17 | 17 | 18 | 3 | 18 | – | 21 | 99 | 178 | – | – | – | Cc1cn(Cc2ccc(F)c(F)c2)c2c(-c3cc(NS(=O)(=O)c4ccc(F)c(F)c4)no3)cc(F)cc12
1020 | – | – | – | – | – | – | – | – | – | – | – | – | – | – | – | – | – | Cc1cn(Cc2ccc(Cl)cc2Cl)c2c(-c3nnc(NC(=O)c4ccc(F)cc4F)o3)cc(F)cc12
363 | – | – | – | – | – | – | – | – | – | – | – | – | – | – | – | – | – | Cc1cn(Cc2ccc(Cl)cc2Cl)c2c(-c3nnc(NC(=O)c4ccco4)o3)cc(F)cc12
3 | – | – | – | – | – | – | – | – | – | – | – | – | – | 3.3 | – | – | – | Cc1cn(Cc2ccc(Cl)cc2Cl)c2c(-c3cc(NS(=O)(=O)c4cc(F)c(F)cc4F)no3)cc(F)cc12
59 | 18 | 8 | -8 | -5 | -3 | 11 | 11 | 9 | 3 | 18 | – | 31 | 52 | 24.2 | – | – | – | Cc1cn(Cc2ccc(F)c(F)c2)c2c(-c3cc(NS(=O)(=O)c4cc(Cl)c(Cl)s4)no3)cc(F)cc12
2 | – | – | – | – | – | – | – | – | – | – | – | – | – | 217 | – | – | – | Cc1cn(Cc2ccc(Cl)cc2Cl)c2c(-c3ccc(NS(=O)(=O)c4cc(Cl)c(Cl)s4)nc3)cc(F)cc12
664 | 15 | 3 | -7 | 10 | -1 | 64 | 14 | 9 | 11 | 62 | – | 66 | 96 | 19.6 | – | – | – | Cc1cn(Cc2ccc(Cl)cc2Cl)c2c(-c3nnc(NC(=O)c4ccc(F)c(F)c4)o3)cc(F)cc12
244 | – | – | – | – | – | – | – | – | – | – | – | – | – | 21.4 | – | – | – | Cc1cn(Cc2ccc(Cl)cc2Cl)c2c(-c3nnc(NC(=O)c4ccc5c(c4)OC(F)(F)O5)o3)cc(F)cc12

— ChEMBL document CHEMBL1154363, “Heterocyclic 1,7-disubstituted indole sulfonamides are potent and selective human EP3 receptor antagonists” (Bioorg Med Chem Lett, 2009)
